“Also recorded” adds a separate entry of the source. Where a name gives a salt, the structure may show the parent alone. Read-outs that look alike come from different tables or passages of the source.
Experiments:
[1] = system: T1, A1AR; experiment: cAMP assay in AR-expressing HEK293 cells (ALPHAScreen), A1AR; format: cell-based, human; conditions: A1AR-expressing HEK cells; cAMP inhibition, Cl-ENBA reference full agonist
T1 construct: expressed in transfected cells; host or cells: HEK293
Description: (§1) HEK293 cells were grown in 96-well plates in DMEM supplemented with 10% fetal bovine serum, 100 Units/ml penicillin, 100 µg/ml streptomycin, and 2 µmol/ml glutamine. […] For A1AR and A3AR, after incubation with agonists for 20 min, forskolin (10 µM) was added and the mixture incubated for an additional 15 min. The reaction was terminated upon removal of the supernatant and addition of 100 µl Tween-20 (0.3%). Intracellular cAMP levels were measured with an ALPHAScreen cAMP assay kit as instructed by the manufacturer (PerkinElmer).

[2] = biological target: T2, human A2AAR (Homo sapiens, UniProt P29274); experiment: cAMP assay in AR-expressing HEK293 cells (ALPHAScreen), A2AAR; format: cell-based
T2 construct: expressed in transfected cells; host or cells: HEK293
Description: as §1

[3] = biological target: T2, human A2AAR; experiment: Radioligand displacement binding, [3H]ZM241385, HEK293 membranes; conditions: mean ± standard error, three independent experiments; for Ki: read-out: Ki, A2A ([3H]ZM241385)
Description: (§2) HEK293 cells stably expressing the human A1AR, A2AAR, A3AR were cultured in DMEM supplemented with 10% fetal bovine serum, 100 Units/ml penicillin, 100 µg/ml streptomycin, and 2 µmol/ml glutamine. To prepare cell membranes, cells were detached from culture plates by scraping into cold PBS and centrifuged at 250 g for 5 min. The pellets were resuspended in ice-cold PBS buffer (pH 7.4) and then homogenized. After homogenization and suspension, cells were centrifuged at 1,000 g for 10 min, and the pellet was discarded. The suspension was then re-centrifuged at 20,000 g for 60 min at 4°C. […] The aliquots of membrane preparations were stored at −80°C until the binding experiments. For displacement binding assays, membrane preparations (20 µg proteins/tube) were incubated at 25°C for 60 min with a final concentration of [^3H]DPCPX (0.5 nM), [^3H]ZM241385 (1.0 nM), […] [^125I]I-AB-MECA (0.1 nM) for A1AR, A2AAR, A3AR, respectively, in a mixture containing 50 µl of increasing concentrations of a test ligand in a total assay volume of 200 µl of 50 mM Tris HCl, pH 7.4, containing 10 mM MgCl2. Nonspecific binding was determined using 100 µM of XAC. The reaction was terminated by filtration with GF/B filters using a Brandel (Gaithersburg, MD) 24-channel harvester. Filters were placed in scintillation vials containing 5 ml of Hydrofluor scintillation buffer (National Diagnostics, Atlanta, GA) and counted using a Tricarb 2810TR liquid scintillation counter (PerkinElmer, Waltham, MA).

[4] = system: T3, human A1AR; experiment: Radioligand displacement binding, [3H]DPCPX, HEK293 membranes; conditions: mean ± standard error, three independent experiments
T3 construct: host or cells: HEK293 A1AR Nomad cell line
Description: as §2

[5] = system: T3, human A1AR; experiment: A1AR cAMP assay, HEK293 A1AR Nomad cell line (Innoprot), agonist mode; format: cell-based; conditions: compounds at 10 µM, normalized to 10 µM NECA (100%) and vehicle DMSO (0%)
From the text: For screening of the initial compounds predicted by machine learning models to activate A1AR receptor, we used the HEK293 A1AR Nomad cell line, which consists of HEK293 cells stably expressing human A1AR with no tag. This cell line has been designed to assay compounds or analyze their capability to modulate the A1AR. When the agonist binds to A1AR in this engineered cell line a Go protein is activated, which in turn, triggers a cellular response mediated by cAMP inhibition. This cellular response can be measured by quantifying the increase in fluorescence intensity and its cellular distribution. An agonist assay was performed for 29 compounds (predicted to be active by the machine learning model) in the human recombinant HEK293 A1AR Nomad cell line using a fluorescence-based assay. An agonist effect of the compounds was measured by quantifying the changes in the fluorescence emission cAMP Nomad biosensor, this elevation of fluorescence was analyzed using a plate reader Synergy 2 (Biotek, Winooski, VT). The error bars represent the standard deviation among the three replicate wells. The 29 compounds were tested at 10 μM using nonselective AR agonist adenosine-5′-N-ethyluronamide (NECA) at 10 μM as a reference.

[6] = biological target: T4, human A3AR (Homo sapiens, UniProt P0DMS8); experiment: Radioligand displacement binding, [125I]I-AB-MECA, HEK293 membranes; conditions: for Ki, A3 ([125I]I-AB-MECA) / Ki: mean ± standard error, three independent experiments; for Ki: read-out: Ki, A3 ([125I]I-AB-MECA)
T4 sequence (P0DMS8 1-318): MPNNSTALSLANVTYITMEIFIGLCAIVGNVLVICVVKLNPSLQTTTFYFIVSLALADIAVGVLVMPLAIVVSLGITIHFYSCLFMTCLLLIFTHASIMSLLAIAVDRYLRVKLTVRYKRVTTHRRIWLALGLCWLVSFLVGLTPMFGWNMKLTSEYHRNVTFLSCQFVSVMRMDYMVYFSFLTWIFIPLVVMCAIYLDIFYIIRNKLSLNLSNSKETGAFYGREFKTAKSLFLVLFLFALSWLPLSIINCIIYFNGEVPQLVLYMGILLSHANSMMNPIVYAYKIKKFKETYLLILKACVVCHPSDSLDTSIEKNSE
Description: as §2

[7] = system: human A2BAR; experiment: Radioligand displacement binding, [3H]DPCPX
[8] = system: T5, A1AR; experiment: A1AR-bla U2OS agonist screen (beta-arrestin/TEV, beta-lactamase reporter; Thermo Fisher); format: cell-based
T5 construct: host or cells: A1AR-bla U2OS
Description: A1AR-bla U2OS cells are thawed and resuspended in Assay Media (Freestyle media) to a concentration of 312,500 cells/ml. 32 μl of cell suspension (10,000 cells) was added to each well of a 384-well TC-Treated assay plate. Cells in Assay Media were incubated for 16–24 h in the plate at 37°C/5% CO2 in a humidified incubator. 4 μl aliquots of a 10X serial dilution of NECA (control agonist starting concentration, 500 nM) or compounds were added to appropriate wells of the plate. 4 μl of Assay Media was added to all wells to bring the final assay volume to 40 μl. The plate was incubated for 5 h at 37°C/5% CO2 in a humidified incubator. 8 μl of 1 μM substrate + Solution D Loading Solution was added to each well and the plate was incubated for 2 h at room temperature. The plate was read on a fluorescence plate reader.
This parental cell line stably expresses a beta‐arrestin/TEV protease fusion protein and the beta‐lactamase reporter gene under the control of a UAS response element. […] We also used a secondary assay PathHunter® β-Arrestin assay, which monitors the activation of A1AR in a homogenous, non-imaging assay format using a technology developed by DiscoverX called Enzyme Fragment Complementation (EFC) with β-galactosidase (β-Gal) as the functional reporter.

[9] = biological target: T4, human A3AR; experiment: cAMP assay in AR-expressing HEK293 cells (ALPHAScreen), A3AR; format: cell-based; conditions: for cAMP, A3AR agonist activity: A3AR-expressing cells, MRS5698 reference full agonist
Description: as §1

[10] = system: T6, A2BAR; conditions: background property of the receptor, no reference given, cited from earlier work
T6 construct: expressed in transfected cells; host or cells: HEK293

[11] = system: A3AR; conditions: background property of the receptor, no reference given; listed as ADO; cited from earlier work

T2 sequence (P29274 whole entry): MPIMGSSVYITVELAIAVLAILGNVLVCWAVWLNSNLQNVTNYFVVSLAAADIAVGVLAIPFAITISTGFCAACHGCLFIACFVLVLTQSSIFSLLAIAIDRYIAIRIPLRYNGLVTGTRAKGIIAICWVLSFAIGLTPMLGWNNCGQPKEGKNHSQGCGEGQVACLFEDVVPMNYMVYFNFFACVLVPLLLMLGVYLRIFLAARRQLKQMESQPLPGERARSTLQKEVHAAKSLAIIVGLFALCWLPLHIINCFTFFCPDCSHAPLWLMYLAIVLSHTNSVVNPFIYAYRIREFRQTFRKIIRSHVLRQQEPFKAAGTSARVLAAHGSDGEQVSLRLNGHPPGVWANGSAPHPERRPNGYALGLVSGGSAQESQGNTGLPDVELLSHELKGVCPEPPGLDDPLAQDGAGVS

| SMILES | cAMP, A1AR agonist activity [1] | cAMP, A2AAR activity (stimulation of cAMP) ([2]; A2AAR-expressing HEK293 cells) | cAMP, A2AAR activity (stimulation of cAMP) ([2]; A2AAR-expressing HEK293 cells, listed as febuxostat) | Ki, A2A ([3H]ZM241385) [3] | Ki [3] | Inhibition of specific binding, % inhibition at 100 µM, A1 ([3H]DPCPX) [4] | normalized activity with respect to the positive control [5] | Ki, A3 ([125I]I-AB-MECA) [6] | Ki [6] | Inhibition of specific binding, % inhibition at 100 µM, A2B ([3H]DPCPX) [7] | Emax ([2]; A2AAR-expressing HEK293 cells, reference full agonist = 100% stimulation) | EC50 ([2]; HEK293 cells expressing human A2AAR, absence of antagonist, read-out: EC50, stimulation of cAMP, A2AAR) | activation of A1AR, A1AR-bla U2OS cells [8] | agonist activity at the human A3AR at 100 µM ([9]; 100 µM) | cAMP, A3AR agonist activity [9] | cAMP, A3AR agonist activity ([9]; listed as paroxetine) | Kd ([6]; as worded in the Discussion) | Adenosine affinity, A2BAR [10] | Adenosine affinity, A2BAR ([10]; listed as ADO) | Adenosine affinity, A3AR [11] |
| --- | --- | --- | --- | --- | --- | --- | --- | --- | --- | --- | --- | --- | --- | --- | --- | --- | --- | --- | --- | --- |
| Cc1nc(-c2ccc(OCC(C)C)c(C#N)c2)sc1C(=O)O [Febuxostat] | Not active | Not active | not | in the µM range | 22.9 ± 4.3 µM | 29.8 ± 5.2% | 94.53% | in the µM range | 67.3 ± 45.7 µM | <10% | – | – | – | – | – | – | – | – | – | – |
| Fc1ccc([C@@H]2CCNC[C@H]2COc2ccc3c(c2)OCO3)cc1 [Paroxetine, Paroxetine Hydrochloride] | Not active | weak activation; also recorded: Active | – | in the µM range | 40.4 ± 9.8 µM | 9.1 ± 3.9% | 68.0% | in the µM range | 14.5 ± 9.7 µM | – | 69% | 14 µM | no activation | did not show any agonist activity | no activation; also recorded: Not active | Lack of agonist effect | 14.5 ± 9.7 µM | – | – | – |
| Nc1ncnc2c1ncn2[C@@H]1O[C@H](CO)[C@@H](O)[C@H]1O [Adenosine] | – | – | – | – | – | – | – | – | – | – | – | – | – | – | – | – | – | Low affinity | relatively lower affinity | relatively lower affinity |
